Measurements taken from patent publication US20230234943A1, “TREX1 INHIBITORS AND USES THEREOF” (Tempest Therapeutics, Inc., priority 2020, published 2023).

Tested on: not given
Assay: not given
Conditions: not given

Point of comparison: `COc1ccc2[nH]c(-c3cc(OC)c(O)c(O)c3C)nc2c1` [Example 175, 6-methoxy-4-(5-methoxy-1H-benzo[d]imidazol-2-yl)-3-methylbenzene-1,2-diol], melting point 249.1 °C. Against it:
- COc1cc(-c2nc3ccccc3n2C2CCC2)c(C2CC2)c(O)c1O [Example 174, 4-(1-cyclobutyl-1H-benzo[d]imidazol-2-yl)-3-cyclopropyl-6-methoxybenzene-1,2-diol] — lower, 209 °C
- COc1cc(-c2nc3ccc(S(C)(=O)=O)cc3n2C2(C)COC2)c(F)c(O)c1O [Example 178, 3-fluoro-4-[6-methanesulfonyl-1-(3-methyloxetan-3-yl)-1H-1,3-benzodiazol-2-yl]-6-methoxybenzene-1,2-diol] — higher, 257.6 °C
- COc1cc(-c2nc3ccc(C#N)cc3n2C2(C)COC2)c(F)c(O)c1O [Example 179, 2-(2-fluoro-3,4-dihydroxy-5-methoxyphenyl)-1-(3-methyloxetan-3-yl)-1H-1,3-benzodiazole-6-carbonitrile] — lower, 209 °C
- COc1cc(-c2nc3ccc(C(N)=O)cc3n2C2(C)COC2)c(F)c(O)c1O [Example 180, 2-(2-fluoro-3,4-dihydroxy-5-methoxyphenyl)-1-(3-methyloxetan-3-yl)-1H-1,3-benzodiazole-6-carboxamide] — lower, 170.4 °C

Biological target: T1, Human TREX1 enzyme (amino acids 1-242) (Homo sapiens, UniProt Q9NSU2)
T1 construct: Human TREX1 enzyme (amino acids 1-242)
T1 sequence (Q9NSU2 1-242): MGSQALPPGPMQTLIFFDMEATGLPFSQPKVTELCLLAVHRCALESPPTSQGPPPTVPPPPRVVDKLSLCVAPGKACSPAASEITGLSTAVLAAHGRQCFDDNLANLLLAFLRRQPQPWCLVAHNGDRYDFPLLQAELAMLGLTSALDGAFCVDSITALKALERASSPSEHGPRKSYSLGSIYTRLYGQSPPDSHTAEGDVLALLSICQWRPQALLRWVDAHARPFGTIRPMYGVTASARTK
Assay: Human TREX1 enzymatic assay with dsDNA native oligonucleotide (Picogreen fluorescence)
Format: biochemical
Conditions: 2 mM dithiothreitol in assay buffer; 50 nM dsDNA oligonucleotide; 30 min preincubation at 25° C.; read-out: TREX1/Human + DTT IC50 AVG
How it was run: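 Remaining dsDNA quantified by Picogreen fluorescence after EDTA quench, with no-enzyme and DMSO wells as controls. Reactions used 50 nM annealed oligonucleotide for 5–15 min at 25 °C, after a 30 min compound–enzyme preincubation (0.8–0.16 nM TREX1; 2% DMSO; pH 7.7 Tris, 5 mM MgCl2).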

First: COc1cc(-c2nc3ccccc3n2C2CCC2)c(C2CC2)c(O)c1O [Example 174, 4-(1-cyclobutyl-1H-benzo[d]imidazol-2-yl)-3-cyclopropyl-6-methoxybenzene-1,2-diol]
Second: COc1cc(-c2nc3ccccc3n2C2CCC2)c(F)c(O)c1O [Example 327, 4-(1-cyclobutyl-1H-benzo[d]imidazol-2-yl)-3-fluoro-6-methoxybenzene-1,2-diol]
The IC50 of the first is higher: 10000 to 100000 nM for the first, 1000 to 10000 nM for the second.

First: COc1ccc2[nH]c(-c3cc(OC)c(O)c(O)c3C)nc2c1 [Example 175, 6-methoxy-4-(5-methoxy-1H-benzo[d]imidazol-2-yl)-3-methylbenzene-1,2-diol]
Second: COc1cc(-c2nc3cc(NCCO)ccc3[nH]2)cc(O)c1O [Example 319, 5-(5-((2-hydroxyethyl)amino)-1H-benzo[d]imidazol-2-yl)-3-methoxybenzene-1,2-diol]
The IC50 of the first is higher: 10000 to 100000 nM for the first, 1000 to 10000 nM for the second.

First: COc1cc(-c2nc3ccc(S(C)(=O)=O)cc3n2C2(C)COC2)c(F)c(O)c1O [Example 178, 3-fluoro-4-[6-methanesulfonyl-1-(3-methyloxetan-3-yl)-1H-1,3-benzodiazol-2-yl]-6-methoxybenzene-1,2-diol]
Second: CNS(=O)(=O)c1ccc2nc(-c3cc(OC)c(O)c(O)c3F)n(C3(C)COC3)c2c1 [Example 325, 2-(2-fluoro-3,4-dihydroxy-5-methoxyphenyl)-N-methyl-1-(3-methyloxetan-3-yl)-1H-benzo[d]imidazole-6-sulfonamide]
The IC50 of the first is lower: 1000 to 10000 nM for the first, 10000 to 100000 nM for the second. The first is the more potent here.

`COc1cc(-c2nc3ccc(C#N)cc3n2C2(C)COC2)c(F)c(O)c1O` [Example 179, 2-(2-fluoro-3,4-dihydroxy-5-methoxyphenyl)-1-(3-methyloxetan-3-yl)-1H-1,3-benzodiazole-6-carbonitrile] and `CNc1ccc2nc(-c3cc(OC)c(O)c(O)c3F)n(C3(C)COC3)c2c1` [Example 317, 3-fluoro-6-methoxy-4-(6-(methylamino)-1-(3-methyloxetan-3-yl)-1H-benzo[d]imidazol-2-yl)benzene-1,2-diol] fall in the same range of IC50: 100 to 1000 nM for the first, 100 to 1000 nM for the second.

`COc1cc(-c2nc3ccc(C(N)=O)cc3n2C2(C)COC2)c(F)c(O)c1O` [Example 180, 2-(2-fluoro-3,4-dihydroxy-5-methoxyphenyl)-1-(3-methyloxetan-3-yl)-1H-1,3-benzodiazole-6-carboxamide] and `COc1cc(-c2nc3cc(NC(C)=O)ccc3n2C2(C)COC2)c(F)c(O)c1O` [Example 312, N-(2-(2-fluoro-3,4-dihydroxy-5-methoxyphenyl)-1-(3-methyloxetan-3-yl)-1H-benzo[d]imidazol-5-yl)acetamide] cannot be ordered by IC50: no more than 100 nM for the first, no more than 100 nM for the second.

`CNC(=O)c1ccc2nc(-c3cc(OC)c(O)c(O)c3F)n(C3(C)CCC3)c2c1` [Example 310, 2-(2-fluoro-3,4-dihydroxy-5-methoxyphenyl)-N-methyl-1-(1-methylcyclobutyl)-1H-benzo[d]imidazole-6-carboxamide] and `COc1cc(-c2nc3ccccc3n2C2(C)CC2)c(F)c(O)c1O` [Example 329, 3-fluoro-6-methoxy-4-(1-(1-methylcyclopropyl)-1H-benzo[d]imidazol-2-yl)benzene-1,2-diol] cannot be ordered by IC50: no more than 100 nM for the first, 100 to 1000 nM for the second.

`COc1cc(-c2nc3cc(NC(C)=O)ccc3n2C2(C)COC2)c(C)c(O)c1O` [Example 311, N-(2-(3,4-dihydroxy-5-methoxy-2-methylphenyl)-1-(3-methyloxetan-3-yl)-1H-benzo[d]imidazol-5-yl)acetamide] and `CNc1ccc2c(c1)nc(-c1cc(OC)c(O)c(O)c1F)n2C1(C)COC1` [Example 316, 3-fluoro-6-methoxy-4-(5-(methylamino)-1-(3-methyloxetan-3-yl)-1H-benzo[d]imidazol-2-yl)benzene-1,2-diol] fall in the same range of IC50: 100 to 1000 nM for the first, 100 to 1000 nM for the second.

`COc1cc(-c2nc3cc(NC(C)=O)ccc3n2C2CCC2)c(F)c(O)c1O` [Example 313, N-(1-cyclobutyl-2-(2-fluoro-3,4-dihydroxy-5-methoxyphenyl)-1H-benzo[d]imidazol-5-yl)acetamide] and `COc1cc(-c2nc3cc(O)ccc3n2C2CCC2)c(C)c(O)c1O` [Example 334, 4-(1-cyclobutyl-5-hydroxy-1H-benzo[d]imidazol-2-yl)-6-methoxy-3-methylbenzene-1,2-diol] fall in the same range of IC50: 100 to 1000 nM for the first, 100 to 1000 nM for the second.

First: COc1cc(-c2nc3ccccc3n2C2(C)COC2)c(C(F)(F)F)c(O)c1O [Example 315, 6-methoxy-4-(1-(3-methyloxetan-3-yl)-1H-benzo[d]imidazol-2-yl)-3-(trifluoromethyl)benzene-1,2-diol]
Second: COc1cc(-c2nc3ncccc3n2C2(C)COC2)c(F)c(O)c1O [Example 326, 3-fluoro-6-methoxy-4-(1-(3-methyloxetan-3-yl)-1H-imidazo[4,5-b]pyridin-2-yl)benzene-1,2-diol]
The IC50 of the first is higher: 10000 to 100000 nM for the first, 1000 to 10000 nM for the second. The second is the more potent here.

Compared with `COc1cc(-c2nc3ccc(Nc4ccccc4)cc3n2C2(C)COC2)c(F)c(O)c1O` [Example 318, 3-fluoro-6-methoxy-4-(1-(3-methyloxetan-3-yl)-6-(phenylamino)-1H-benzo[d]imidazol-2-yl)benzene-1,2-diol], `COc1cc(-c2nc3ccccc3n2-c2ccccc2)c(F)c(O)c1O` [Example 331, 3-fluoro-6-methoxy-4-(l-phenyl-1H-1,3-benzodiazol-2-yl)benzene-1,2-diol] is higher in IC50: 100 to 1000 nM for the first, 1000 to 10000 nM for the second. The first is the more potent here.

First: COc1cc(-c2nc3ccccc3n2C2CN(C)C2)c(C)c(O)c1O [Example 320, 6-methoxy-3-methyl-4-(1-(1-methylazetidin-3-yl)-1H-benzo[d]imidazol-2-yl)benzene-1,2-diol]
Second: COc1cc(-c2nc3ccccc3n2C2CN(S(C)(=O)=O)C2)c(C)c(O)c1O [Example 322]
The IC50 of the first is higher: greater than 100000 nM for the first, 10000 to 100000 nM for the second.

First: COc1cc(-c2nc3ccccc3n2C2CN(C(C)=O)C2)c(C)c(O)c1O [Example 321, 1-(3-(2-(3,4-dihydroxy-5-methoxy-2-methylphenyl)-1H-benzo[d]imidazol-1-yl)azetidin-1-yl)ethan-1-one]
Second: COc1cc(-c2nc3ccccc3n2C2CC2)c(C)c(O)c1O [Example 324, 4-(1-cyclopropyl-1H-benzo[d]imidazol-2-yl)-6-methoxy-3-methylbenzene-1,2-diol]
The IC50 of the first is higher: greater than 100000 nM for the first, 1000 to 10000 nM for the second.

Compared with `COc1c(O)c(O)c(C)c(-c2nc3ccccc3n2C2CCC2)c1F` [Example 323, 4-(1-cyclobutyl-1H-benzo[d]imidazol-2-yl)-5-fluoro-6-methoxy-3-methylbenzene-1,2-diol], `Oc1cc(-c2nc3ccccc3n2C2CCC2)cc(OC(F)F)c1O` [Example 333, 5-(1-cyclobutyl-1H-benzo[d]imidazol-2-yl)-3-(difluoromethoxy)benzene-1,2-diol] is higher in IC50: 1000 to 10000 nM for the first, greater than 100000 nM for the second. The first is the more potent here.

`COc1cc(-c2nc3ccccc3n2C23CC(C2)C3)c(F)c(O)c1O` [Example 328, 4-(1-(bicyclo[1.1.1]pentan-1-yl)-1H-benzo[d]imidazol-2-yl)-3-fluoro-6-methoxybenzene-1,2-diol] and `COc1cc(-c2nc3ccccc3n2C(C)(C)C)c(F)c(O)c1O` [Example 330, 4-(1-(tert-butyl)-1H-benzo[d]imidazol-2-yl)-3-fluoro-6-methoxybenzene-1,2-diol] cannot be ordered by IC50: no more than 100 nM for the first, 100 to 1000 nM for the second.
